Legend:
Format in all cases: in vivo
[1] = system: large crabgrass (Digitaria sanguinalis); experiment: Test A pre-/postemergence plant response
Summary of the method: (§1)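 Greenhouse pots of loam/sand received directed preemergence soil sprays or postemergence sprays (plants 2–10 cm, 1–2 leaf stage), compounds formulated in non-phytotoxic solvent with surfactant. Injury was rated visually versus untreated controls after about ten days on a 0 (no effect) to 100 (complete control) scale.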

[2] = system: wheat (Triticum aestivum); experiment: Test A pre-/postemergence plant response
Summary of the method: as §1

corn (Zea mays) = experiment: Test A pre-/postemergence plant response
Summary of the method: as §1

[3] = system: morningglory (Ipomoea spp.); experiment: Test A pre-/postemergence plant response
Summary of the method: as §1

[4] = system: velvetleaf (Abutilon theophrasti); experiment: Test A pre-/postemergence plant response
Summary of the method: as §1

[5] = system: pigweed (Amaranthus retroflexus); experiment: Test A pre-/postemergence plant response
Summary of the method: as §1

[6] = system: giant foxtail (Setaria faberii); experiment: Test A pre-/postemergence plant response
Summary of the method: as §1

[7] = system: barnyardgrass (Echinochloa crus-galli); experiment: Test A pre-/postemergence plant response
Summary of the method: as §1

[8] = system: windgrass (Apera spica-venti); experiment: Test B postemergence plant response; settings: for Plant response rating, Windgrass: Postemergence
Summary of the method: (§2)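 Plants at the 1- to 4-leaf stage (2 to 18 cm tall), grown in pots of peat moss/vermiculite medium with wetting agent and starter nutrients, received postemergence applications of test chemicals. After 13 to 15 days in a greenhouse, injury was rated visually against untreated controls on a 0 (no effect) to 100 (complete control) scale.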

[9] = system: chickweed (Stellaria media); experiment: Test B postemergence plant response; settings: for Plant response rating, Chickweed: Postemergence
Summary of the method: as §2

[10] = system: canarygrass (Phalaris minor); experiment: Test B postemergence plant response; settings: for Plant response rating, Canarygrass: Postemergence
Summary of the method: as §2

rice (Oryza sativa) = experiment: Test B flooded paddy test; settings: for Plant response rating, Flood, Rice: 250 g ai/ha, flooded paddy test, visual rating on 0 to 100 scale (0 no effect, 100 complete control) after 13 to 15 days; for Plant response rating, Rice: Flood (flooded paddy test), 13 to 15 days
Summary of the method: (§3)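 Plants were grown to the 2-leaf stage, then pots were flooded to 3 cm above the soil and compounds were applied directly into the paddy water. That depth was held throughout. After 13 to 15 days in a greenhouse, injury was visually rated against controls on a 0–100 scale.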

[11] = system: ducksalad (Heteranthera limosa); experiment: Test B flooded paddy test; settings: for Plant response rating, Flood, Ducksalad: 250 g ai/ha, flooded paddy test, visual rating on 0 to 100 scale (0 no effect, 100 complete control) after 13 to 15 days; for Plant response rating, Ducksalad: Flood (flooded paddy test), 13 to 15 days
Summary of the method: as §3

[12] = Postemergence, 125 g ai/ha, 0 to 100 scale where 0 is no effect and 100 is complete control
[13] = Postemergence, 500 g ai/ha, 0 to 100 scale, 0 = no effect, 100 = complete control, approx. ten days
[14] = Preemergence, 125 g ai/ha, 0 to 100 scale, 0 = no effect, 100 = complete control
[15] = Preemergence, 500 g ai/ha, visual injury, 0 to 100 scale (0 no effect, 100 complete control), approx. ten days
[16] = 62 g ai/ha, postemergence, 0 is no effect, 100 is complete control, 13 to 15 days
[17] = 31 g ai/ha, 0 to 100 scale (0 no effect, 100 complete control)
[18] = 125 g ai/ha, scale 0 to 100 (0 no effect, 100 complete control)
[19] = 62 g ai/ha, scale of 0 to 100 where 0 is no effect and 100 is complete control
[20] = Postemergence, 500 g ai/ha, visual injury, 0 to 100 scale (0 no effect, 100 complete control), approx. ten days
[21] = Preemergence, 500 g ai/ha, 0 to 100 scale, 0 = no effect, 100 = complete control
[22] = 62 g ai/ha, scale 0 to 100 (0 no effect, 100 complete control)
[23] = 125 g ai/ha, scale 0 (no effect) to 100 (complete control), 13 to 15 days
[24] = 250 g ai/ha, scale 0 to 100 (0 no effect, 100 complete control), 13 to 15 days
[25] = 125 g ai/ha, scale 0 to 100, 0 is no effect, 100 is complete control
[26] = Flood, 31 g ai/ha, scale 0 to 100 (0 no effect, 100 complete control)

For O=C1CCCC(O)=C1C(=O)c1cnc(-c2ccccc2)n(C2CCCC2)c1=O [Compound 131], the “Plant response rating, Crabgrass, Large” value [1, 12] was 90, the “Plant response rating, Crabgrass, Large” value [1, 13] was 90 and the “Plant response rating, Crabgrass, Large” value [1, 14] was 80. For the same compound, the “Plant response rating, Crabgrass, Large” value [1, 15] was 100, the “Plant response rating, Wheat” value [2, 12] was 0 and the “Plant response rating, Wheat” value [2, 13] was 0. For the same compound, the “Plant response rating, Wheat” value [2, 14] was 0, the “Plant response rating, Wheat” value [2, 15] was 0 and the “Plant response rating, Corn” value (corn (Zea mays); [12]) was 0. For the same compound, the “Plant response rating, Corn” value (corn (Zea mays); [13]) was 30, the “Plant response rating, Corn” value (corn (Zea mays); [14]) was 0 and the “Plant response rating, Corn” value (corn (Zea mays); [15]) was 0. For the same compound, the “Plant response rating, Morningglory” value [3, 12] was 100, the “Plant response rating, Morningglory” value [3, 13] was 100 and the “Plant response rating, Morningglory” value [3, 15] was 80. The “Plant response rating, Velvetleaf” value [4, 12] was 100, the “Plant response rating, Velvetleaf” value [4, 13] was 100 and the “Plant response rating, Velvetleaf” value [4, 14] was 80. For the same compound, the “Plant response rating, Velvetleaf” value [4, 15] was 100, the “Plant response rating, Pigweed” value [5, 12] was 100 and the “Plant response rating, Pigweed” value [5, 13] was 100. The “Plant response rating, Pigweed” value [5, 14] was 100, the “Plant response rating, Pigweed” value [5, 15] was 100 and the “Plant response rating, Foxtail, Giant” value [6, 12] was 80. The “Plant response rating, Foxtail, Giant” value [6, 13] was 90, the “Plant response rating, Foxtail, Giant” value [6, 14] was 60 and the “Plant response rating, Foxtail, Giant” value [6, 15] was 80. For the same compound, the “Plant response rating, Barnyardgrass” value [7, 12] was 90, the “Plant response rating, Barnyardgrass” value [7, 13] was 90 and the “Plant response rating, Barnyardgrass” value [7, 14] was 50. The “Plant response rating, Barnyardgrass” value [7, 15] was 100, the “Plant response rating, Windgrass” value ([8]; 16 g ai/ha, 0 to 100 scale) was 0 and the “Windgrass plant response rating (0 to 100 scale)” value [8, 16] was 0. The “Plant response rating, Windgrass” value [8, 17] was 0, the “Plant response rating, Windgrass” value [8, 18] was 5 and the “Plant response rating, Chickweed” value ([9]; 16 g ai/ha, 0 to 100 scale) was 45. The “Chickweed plant response rating (0 to 100 scale)” value [9, 16] was 80, the “Plant response rating, Chickweed” value [9, 17] was 65 and the “Plant response rating, Chickweed” value [9, 18] was 90. The “Plant response rating, Canarygrass” value ([10]; 16 g ai/ha, 0 to 100 scale) was 0, the “Canarygrass plant response rating (0 to 100 scale)” value [10, 16] was 0 and the “Plant response rating, Canarygrass” value [10, 17] was 0. The “Plant response rating, Canarygrass” value [10, 18] was 0, the “Plant response rating, Flood, Rice” value (rice (Oryza sativa)) was 55 and the “Plant response rating, Rice” value (rice (Oryza sativa); [19]) was 25. The “Plant response rating, Flood, Ducksalad” value [11] was 85 and the “Plant response rating, Ducksalad” value [11, 19] was 40.

In the case of COCCCn1c(-c2cccc(F)c2)ncc(C(=O)C2=C(O)C3CCC(C3)C2=O)c1=O (stereo not drawn) [Compound 238], the “Plant response rating, Crabgrass, Large” value [1, 12] is reported as 90, the “Crabgrass, Large plant response rating” value [1, 20] is reported as 100 and the “Plant response rating, Crabgrass, Large” value [1, 14] is reported as 90. For the same compound, the “Plant response rating, Crabgrass, Large” value [1, 21] was 100, the “Plant response rating, Wheat” value [2, 12] was 50 and the “Wheat plant response rating” value [2, 20] was 80. The “Plant response rating, Wheat” value [2, 14] was 0, the “Plant response rating, Wheat” value [2, 21] was 40 and the “Plant response rating, Corn” value (corn (Zea mays); [12]) was 40. For the same compound, the “Corn plant response rating” value (corn (Zea mays); [20]) was 80, the “Plant response rating, Corn” value (corn (Zea mays); [14]) was 0 and the “Plant response rating, Corn” value (corn (Zea mays); [21]) was 50. For the same compound, the “Plant response rating, Morningglory” value [3, 12] was 100, the “Morningglory plant response rating” value [3, 20] was 100 and the “Plant response rating, Morningglory” value [3, 14] was 40. For the same compound, the “Plant response rating, Morningglory” value [3, 21] was 90, the “Plant response rating, Velvetleaf” value [4, 12] was 100 and the “Velvetleaf plant response rating” value [4, 20] was 100. For the same compound, the “Plant response rating, Velvetleaf” value [4, 14] was 90, the “Plant response rating, Velvetleaf” value [4, 21] was 100 and the “Plant response rating, Pigweed” value [5, 12] was 100. The “Pigweed plant response rating” value [5, 20] was 100, the “Plant response rating, Pigweed” value [5, 14] was 100 and the “Plant response rating, Pigweed” value [5, 21] was 100. For the same compound, the “Plant response rating, Foxtail, Giant” value [6, 12] was 90, the “Foxtail, Giant plant response rating” value [6, 20] was 100 and the “Plant response rating, Foxtail, Giant” value [6, 14] was 50. The “Plant response rating, Foxtail, Giant” value [6, 21] was 90, the “Plant response rating, Barnyardgrass” value [7, 12] was 100 and the “Barnyardgrass plant response rating” value [7, 20] was 100. For the same compound, the “Plant response rating, Barnyardgrass” value [7, 14] was 70, the “Plant response rating, Barnyardgrass” value [7, 21] was 100 and the “Plant response rating, Windgrass” value [8, 17] was 45. For the same compound, the “Plant response rating, Windgrass” value [8, 22] was 70, the “Plant response rating, Windgrass” value [8, 23] was 85 and the “Plant response rating, Windgrass” value [8, 24] was 95. For the same compound, the “Plant response rating, Chickweed” value [9, 17] was 80, the “Plant response rating, Chickweed” value [9, 22] was 90 and the “Plant response rating, Chickweed” value [9, 23] was 100. The “Plant response rating, Chickweed” value [9, 24] was 100, the “Plant response rating, Canarygrass” value [10, 17] was 20 and the “Plant response rating, Canarygrass” value [10, 22] was 25. The “Plant response rating, Canarygrass” value [10, 23] was 30, the “Plant response rating, Canarygrass” value [10, 24] was 30 and the “Plant response rating, Flood, Rice” value (rice (Oryza sativa)) was 0. The “Plant response rating, Rice” value (rice (Oryza sativa); [19]) was 0, the “Plant response rating, Rice” value (rice (Oryza sativa); [25]) was 0 and the “Rice plant response rating” value (rice (Oryza sativa); [26]) was 0. The “Plant response rating, Flood, Ducksalad” value [11] was 100, the “Plant response rating, Ducksalad” value [11, 19] was 40 and the “Plant response rating, Ducksalad” value [11, 25] was 80. For the same compound, the “Ducksalad plant response rating” value [11, 26] was 0.
